Data reported in US9573913B2, “Cathepsin cysteine protease inhibitors” (Merck Sharp & Dohme Corp., priority 2013, dated 2017).

Experiments:
human cathepsin F = target: T1, human cathepsin F (Homo sapiens, UniProt Q9UBX1); test: Cathepsin F assay (hCat F); type: biochemical; details: Z-Phe-Arg-AMC substrate, pH 5.5, 15 min preincubation; read-out: hCat F (IP (nM))
T1 sequence (Q9UBX1 271-484): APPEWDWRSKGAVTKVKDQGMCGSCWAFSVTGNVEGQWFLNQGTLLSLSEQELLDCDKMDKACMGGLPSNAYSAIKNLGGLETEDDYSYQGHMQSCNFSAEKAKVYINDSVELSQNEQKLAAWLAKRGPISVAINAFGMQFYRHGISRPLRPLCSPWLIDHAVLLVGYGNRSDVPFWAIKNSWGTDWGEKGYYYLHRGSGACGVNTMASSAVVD
Description: Cathepsin F assay (hCat F)
(§1) Serial dilutions (1/3) from 500 μM down to 0.025 μM of test compounds were prepared in dimethyl sulfoxide (DMSO). Then 0.5 μL of DMSO from each dilution were added to 18.75 μL of assay buffer (MES, 50 mM (pH 5.5); EDTA, 2.5 mM; DTT, 2.5 mM and 10% DMSO) containing human cathepsin F (10 nM) in assay buffer solution. The assay solutions were mixed for 5-10 seconds on a shaker plate and incubated for 15 minutes at room temperature. Z-Phe-Arg-AMC (8 μM) in 6.25 μL of assay buffer was added to the assay solutions. Hydrolysis of the coumarin leaving group (AMC) was followed by spectrofluorometry (Exλ=360 nm; Emλ=460 nm) for 20 minutes. Percent of inhibition were calculated by fitting experimental values to standard mathematical model for dose response curve.

human cathepsin K = human cathepsin K (UniProt P43236); test: Cathepsin K Assay (hrbCat K); type: biochemical; details: Z-Leu-Arg-AMC substrate, pH 5.5, 15 min preincubation; read-out: hrbCat K (IP (nM))
Description: Cathepsin K Assay (hrbCat K)
as §1, with “Then” for “Serial dilutions (1/3) from 500 μM down to 0.025 μM of test compounds were prepared in dimethyl sulfoxide (DMSO). Then”, “K (0.4” for “F (10”, “Z-Leu-Arg-AMC” for “Z-Phe-Arg-AMC”, “30” for “20”

Row | Structure (SMILES) | IC50 (human cathepsin F) | IC50 (human cathepsin K)
1 | CC1CC1(C#N)NC(=O)[C@@H]1CCCC[C@H]1c1nc(-c2ccc(F)cn2)sc1-c1ccc(N2CCS(=O)(=O)CC2)cc1 (single isomer, unassigned) [Example 202, (1R,2R)-N-((1S,2S or 1S,2R or 1R,2S or 1R,2R)-1-cyano-2-methylcyclopropyl)-2-(5-(4-(1,1-dioxidothiomorpho-lino)phenyl)-2-(5-fluoropyridin-2-yl)thiazol-4-yl)cyclohexane-carboxamide] | ≥ 10000 nM | 6.6 nM
2 | N#CC1(NC(=O)[C@@H]2C[C@@H](F)CC[C@H]2c2nc(C3CC(F)C3)sc2-c2ccc(N3CCS(=O)(=O)CC3)cc2)CC1 (single isomer, unassigned) [Example 233, (1R,2R,5S)-N-(1-cyanocyclopropyl)-2-(5-(4-(1,1-dioxidothiomorpho-lino)phenyl)-2-((1S,3S or 1R,3R)-3-fluorocyclobutyl)thiazol-4-yl)-5-fluorocyclohexane-carboxamide] | ≥ 10000 nM | 6 nM
3 | C[C@@H](C#N)NC(=O)[C@@H]1C[C@@H](F)CC[C@H]1c1nc(C2CC(F)C2)sc1-c1ccc(N2CCS(=O)(=O)CC2)cc1 (single isomer, unassigned) [Example 234, (1R,2R,5S)-N-((S)-1-cyanoethyl)-2-(5-(4-(1,1-dioxidothiomorpho-lino)phenyl)-2-((1S,3S or 1R,3R)-(3-fluorocyclobutyl)thiazol-4-yl)-5-fluorocyclohexane-carboxamide] | 6100 nM | 4 nM
4 | C[C@@H](C#N)NC(=O)[C@@H]1C[C@@H](F)CC[C@H]1c1nc(C2CC(F)C2)sc1-c1ccc(N2CCS(=O)(=O)CC2)cc1 (single isomer, unassigned) [Example 236, (1R,2R,5S)-N-((S)-1-cyanoethyl)-2-(5-(4-(1,1-dioxidothiomorpho-lino)phenyl)-2-((1R,3R or 1S,3S)-(3-fluorocyclobutyl)thiazol-4-yl)-5-fluorocyclohexane-carboxamide] | 4500 nM | 3.7 nM
5 | Cc1nc([C@@H]2CC[C@H](F)C[C@H]2C(=O)NC2(C#N)CC2)c(-c2ccc(N3CCOCC3)cc2)s1 [Compound 9, (1R,2R,5S)-N-(1-cyanocyclopropyl)-5-fluoro-2-(2-methyl-5-(4-morpholinophenyl)thiazol-4-yl)cyclohexanecarboxamide] | ≥ 10000 nM | 44.1 nM
6 | N#CC1(NC(=O)[C@@H]2CCCC[C@H]2c2nc(C3CCOCC3)sc2-c2ccc(N3CCS(=O)(=O)CC3)cc2)CC1 [Example 11, (1R,2R)-N-(1-Cyanocyclopropyl)-2-(5-(4-(1,1-dioxidothiomorpholino)phenyl)-2-(tetrahydro-2H-pyran-4-yl)thiazol-4-yl)cyclohexanecarboxamide] | ≥ 10000 nM | 3 nM
7 | Cc1nc([C@@H]2CCCC[C@H]2C(=O)NCC#N)c(-c2ccc(C(=O)N3CCOCC3)cc2)s1 [Example 12, (1R,2R)-N-(cyanomethyl)-2-(2-methyl-5-(4-(morpholine-4-carbonyl)phenyl)thiazol-4-yl)cyclohexanecarboxamide] | 5170 nM | 17 nM
8 | CC(C)(C)c1nc([C@@H]2CC[C@H](F)C[C@H]2C(=O)NC2(C#N)CC2)c(-c2ccc(N3CCS(=N)(=O)CC3)cc2)o1 [Example 13, (1R,2R,5S)-2-(2-(tert-Butyl)-5-(4-(1-imino-1-oxidothiomorpholino)phenyl)oxazol-4-yl)-N-(1-cyanocyclopropyl)-5-fluorocyclohexanecarboxamide] | ≥ 10000 nM | 6 nM

The next molecules have a lower IC50 (human cathepsin F) than those just listed; values first:

Row | IC50 (human cathepsin F) | IC50 (human cathepsin K) | Structure (SMILES)
9 | 103 nM | 0.4 nM | CCC(C#N)NC(=O)[C@@H]1CCCC[C@H]1c1nc(-c2ccc(F)cn2)sc1-c1ccc(N2CCS(=O)(=O)CC2)cc1 (single isomer, unassigned) [Example 192, (1R,2R)-N-((R or S)-1-cyanopropyl)-2-(5-(4-(1,1-dioxidothiomorpho-lino)phenyl)-2-(5-fluoropyridin-2-yl)thiazol-4-yl)cyclohexane-carboxamide]
10 | 21 nM | 0.6 nM | N#CC(CC(F)(F)F)NC(=O)[C@@H]1CCCC[C@H]1c1nc(-c2ccc(F)cn2)sc1-c1ccc(N2CCS(=O)(=O)CC2)cc1 (single isomer, unassigned) [Example 193, (1R,2R)-N-((R or S)-1-cyano-3,3,3-trifluoropropyl)-2-(5-(4-(1,1-dioxidothiomorpho-lino)phenyl)-2-(5-fluoropyridin-2-yl)thiazol-4-yl)cyclohexane-carboxamide]
11 | 1920 nM | 3.1 nM | N#CC(CC(F)(F)F)NC(=O)[C@@H]1CCCC[C@H]1c1nc(-c2ccc(F)cn2)sc1-c1ccc(N2CCS(=O)(=O)CC2)cc1 (single isomer, unassigned) [Example 194, (1R,2R)-N-((S or R)-1-cyano-3,3,3-trifluoropropyl)-2-(5-(4-(1,1-dioxidothiomorpho-lino)phenyl)-2-(5-fluoropyridin-2-yl)thiazol-4-yl)cyclohexane-carboxamide]
12 | 1000 nM | 5.8 nM | N#CC1(NC(=O)[C@@H]2CCCC[C@H]2c2nc(C3CC(F)(F)C3)sc2-c2ccc(N3CCS(=O)(=O)CC3)cc2)CC1 [Compound 1, (1R,2R)-N-(1-cyanocyclopropyl)-2-(2-(3,3-difluorocyclobutyl)-5-(4-(1,1-dioxidothiomorpholino)phenyl)thiazol-4-yl)cyclohexanecarboxamide]
13 | 3330 nM | 1.9 nM | N#CC1(NC(=O)[C@@H]2CCCC[C@H]2c2nc(-c3ccc(F)cc3)sc2-c2ccc(N3CCS(=N)(=O)CC3)cc2)CC1 [Compound 5, (1R,2R)-N-(1-Cyanocyclopropyl)-2-(2-(4-fluorophenyl)-5-(4-(1-imino-1-oxidothiomorpholino)phenyl)thiazol-4-yl)cyclohexanecarboxamide]
14 | 1000 nM | 3.6 nM | N#CC1(NC(=O)[C@@H]2CCCC[C@H]2c2nc(N3CCC(F)(F)CC3)sc2-c2ccc(N3CCS(=O)(=O)CC3)cc2)CC1 [Compound 6, (1R,2R)-N-(1-cyanocyclopropyl)-2-(2-(4,4-difluoropiperidin-1-yl)-5-(4-(1,1-dioxidothiomorpholino)phenyl)thiazol-4-yl)cyclohexanecarboxamide]
15 | 1920 nM | 0.9 nM | N#CC1(NC(=O)[C@@H]2C[C@@H](F)CC[C@H]2c2nc(-c3cncc(F)c3)sc2-c2ccc(N3CCS(=O)(=O)CC3)cc2)CC1 [Compound 7, (1R,2R,5S)-N-(1-cyanocyclopropyl)-2-(5-(4-(1,1-dioxidothiomorpholino)phenyl)-2-(5-fluoropyridin-3-yl)thiazol-4-yl)-5-fluorocyclohexanecarboxamide]
16 | 1100 nM | 1.3 nM | C[C@@H](C#N)NC(=O)[C@@H]1C[C@@H](F)CC[C@H]1c1nc(-c2ccc(F)cn2)sc1-c1ccc(N2CCS(=O)(=O)CC2)cc1 [Compound 8, (1R,2R,5S)-N—((S)-1-Cyanoethyl)-2-(5-(4-(1,1-dioxidothiomorpholino)phenyl)-2-(5-fluoropyridin-2-yl)thiazol-4-yl)-5-fluorocyclohexanecarboxamide]
17 | 1110 nM | 2.5 nM | N#CC1(NC(=O)[C@@H]2CCCC[C@H]2c2nc(-c3ccc(F)cc3)oc2-c2ccc(N3CCS(=O)(=O)CC3)cc2)CC1 [Example 10, (1R,2R)-N-(1-cyanocyclopropyl)-2-(5-(4-(1,1-dioxidothiomorpholino)phenyl)-2-(4-fluorophenyl)oxazol-4-yl)cyclohexanecarboxamide]
